From patent US9744165B2, “Method for treating hypertension” (TSH Biopharm Corporation Ltd., priority 2010, dated 2017)

Tests used:
[1] = system: apolipoprotein E (apoE)-deficient mice; conditions: cited from earlier work
[2] = system: spontaneous hypertensive rats (SHR); assay: Anti-hypertensive efficacy of monotherapy and combined therapy in spontaneous hypertensive rats (tail-cuff blood pressure); type: in vivo, rat
Description: An in vivo study was conducted to measure and compare the anti-hypertensive efficacy and tolerability of dextromethorphan and amlodipine in monotherapy and combined therapy in spontaneous hypertensive rats, an animal model for hypertension. The same study can be performed with other NADPH oxidase inhibitor and CCB.
Aged 18-week male normotensive Wistar Kyoto (WKY) and spontaneous hypertensive rats (SHR) were used in this study.
Untreated WKY and SHR were compared with SHR treated with amlodipine (1, 5 mg/kg/day) or dextromethorphan (1, 5, 25 mg/kg/day) and fix dose combination (AM+DM) using a matrix combination of above doses for 4 weeks. All the treatment groups are listed in Table 1, including G1˜G12 for SHR and G0 for WKY as a control.
Control rats (G0 and G1) received 1% solution of methylcellulose (1 ml/kg) by a gavage as a vehicle. AM and DM were suspended in 1% solution of methylcellulose and administered by a gavage in a 1 ml/kg volume. All compounds were administered for 4 weeks. Arterial blood pressure measurement and blood sampling were carried out before treatment, and after the second and forth week of drug administration.
Arterial blood pressure was measured in conscious rats with an automatic sphygmomanometer, using tail-cuff method. Before the measurements, the animals were placed inside a warming chamber (about 34° C.) for 30 min. The aim of the procedure is to calm the animals and dilate the tail blood vessels. Arterial blood pressure was measured at least three times for each animal. Changes in pressure are expressed as the percentage of baseline values.
Arterial blood pressure and blood sampling will be measured before treatment, and after the second and forth week of drug administration (FIG. 6).
Results are expressed as mean±SD. The normality of distribution was checked by means of Kolmogorov-Smirnov test with Lilliefors test. The statistical evaluation was performed using analysis of variance (ANOVA) and post hoc comparisons were performed by means of Least Significant Differences (LSD) test. If the data were not normally distributed, statistical evaluation was performed by using ANOVA (Kruskall-Wallis) and Mann-Whitney U test. Differences were considered significant when p<0.05.

[3] = system: animal models of hypertension; conditions: cited from earlier work

In the case of `COc1ccc2c(c1)[C@]13CCCC[C@@H]1[C@H](C2)N(C)CC3` [DM, (+)-3-methoxy-17-methyl-9α,13α,14α-morphinan], the superoxide production ([1]; aorta and carotid artery of apoE-deficient mice) is given as “decreases superoxide production”, the “oxidative stress, atherosclerosis and neointima formation” value ([1]; mice, through direct inhibition of NADPH oxidase) is given as “reduces oxidative stress and inhibits atherosclerosis and neointima formation” and the “blood pressure lowering effect (SBP, DBP, MBP)” value ([2]; DM alone at 1, 5 and 25 mg/kg/day by gavage for 4 weeks, FIGS. 1a-d) is given as “resulted in lowering of the blood pressure”. For the same compound, the “dosage response of blood pressure lowering” value ([2]; DM alone, 1 vs 5 vs 25 mg/kg/day) was “no clear dosage response was observed”.
For `COc1cc(C(C)=O)ccc1O` [apocynin], the blood pressure [3] is listed as “decrease blood pressure”.
In the case of `CCOC(=O)C1=C(COCCN)NC(C)=C(C(=O)OC)C1c1ccccc1Cl` (stereo not shown) [AM, 3-ethyl 5-methyl 2-[(2-aminoethoxy)methyl]-4-(2-chlorophenyl)-1,4-dihydro-6-m ethylpyridine-3,5-dicarboxylate], the “blood pressure lowering effect (SBP, DBP, MBP)” value ([2]; AM alone at 1 and 5 mg/kg/day by gavage for 4 weeks, FIGS. 2a-d) is reported as “resulted in lowering of the blood pressure” and the “dosage response of blood pressure lowering” value ([2]; AM alone, 1 vs 5 mg/kg/day) is reported as “more pronounced with the higher dose”.
